In PubChem BioAssay (NCI):
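Cultured in 96-well plates, cells were exposed to test compound for 48 hours across five concentrations. GI50 marks 50% less growth. Definition used: TGI = concentration required for complete inhibition of growth.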

Key:
Assay in all cases: NCI-60 cell line screen, 48 h
[1] = system: CAKI-1 renal
[2] = system: BT-549 breast
[3] = system: HS 578T breast
[4] = system: HT29 colon
[5] = system: UACC-62 melanoma
[6] = system: A498 renal
[7] = system: CCRF-CEM leukemia
[8] = system: HL-60(TB) leukemia
[9] = system: KM12 colon
[10] = system: NCI-H460 lung
[11] = system: UACC-257 melanoma
[12] = system: MCF7 breast
[13] = system: NCI-H23 lung
[14] = system: LOX IMVI melanoma
[15] = system: OVCAR-3 ovarian
[16] = system: SN12C renal
[17] = system: SK-MEL-2 melanoma
[18] = system: HCT-15 colon
[19] = system: SR leukemia
[20] = system: MOLT-4 leukemia
[21] = system: COLO 205 colon
[22] = system: ACHN renal
[23] = system: RPMI-8226 leukemia
[24] = system: A549 NSCLC
[25] = system: MDA-MB-435
[26] = system: PC-3 prostate
[27] = system: NCI-H226 lung
[28] = system: HCC-2998 colon
[29] = system: SK-OV-3 ovarian
[30] = system: RXF 393 renal
[31] = system: IGROV1 ovarian
[32] = system: SW-620 colon
[33] = system: 786-0 renal
[34] = system: SF-268 CNS
[35] = system: UO-31 renal
[36] = system: SK-MEL-5 melanoma
[37] = system: HOP-62 NSCLC
[38] = system: SK-MEL-28 melanoma
[39] = system: NCI-H522 lung
[40] = system: TK-10 renal
[41] = system: K-562 leukemia
[42] = system: SNB-75 CNS
[43] = system: OVCAR-8 ovarian
[44] = system: MDA-MB-231 breast
[45] = system: NCI/ADR-RES ovarian
[46] = system: SNB-19 CNS
[47] = system: U251 CNS
[48] = system: HCT-116 colon
[49] = system: OVCAR-5 ovarian
[50] = system: EKVX NSCLC
[51] = system: OVCAR-4 ovarian
[52] = system: HOP-92 NSCLC
[53] = system: DU-145 prostate
[54] = system: M14 melanoma
[55] = system: T-47D breast
[56] = system: SF-295 CNS
[57] = system: MALME-3M melanoma
[58] = system: SF-539 CNS

In the case of `COC(=O)C1=CN(CC2=CC(=O)C(C)=CC2=O)C=C(C(=O)OC)C1c1cc(OC)ccc1OC`, the GI50 [1] is reported as 6.38 µM, the TGI [1] is reported as 13.5 µM and the GI50 [2] is reported as 17.1 µM. For the same compound, the TGI [2] was 41.7 µM, the GI50 [3] was 4.54 µM and the TGI [3] was 27.3 µM. For the same compound, the GI50 [4] was 4.71 µM, the TGI [4] was > 100 µM and the GI50 [5] was 13.3 µM. It also gave a TGI [5] of 26.4 µM, a GI50 [6] of 15 µM and a TGI [6] of 29.7 µM. It also gave a GI50 [7] of 1.73 µM, a TGI [7] of 3.61 µM and a GI50 [8] of 6.8 µM. It also gave a TGI [8] of 99.4 µM, a GI50 [9] of 16.1 µM and a TGI [9] of 31.7 µM. The GI50 [10] was 20.4 µM, the TGI [10] was > 95.8 µM and the GI50 [11] was 14.1 µM. The TGI [11] was 27.4 µM, the GI50 [12] was 22.7 µM and the TGI [12] was > 92.2 µM. For the same compound, the GI50 [13] was 13.4 µM, the TGI [13] was 28.6 µM and the GI50 [14] was 13.7 µM. The TGI [14] was 26.6 µM, the GI50 [15] was 12.5 µM and the TGI [15] was 29.2 µM. It also gave a GI50 [16] of 16 µM, a TGI [16] of 33.2 µM and a GI50 [17] of 24 µM. The TGI [17] was > 73 µM, the GI50 [18] was 13.5 µM and the TGI [18] was 30 µM. For the same compound, the GI50 [19] was 2.59 µM, the TGI [19] was > 22.3 µM and the GI50 [20] was 2.21 µM. For the same compound, the GI50 [21] was 8.56 µM, the TGI [21] was 30.6 µM and the GI50 [22] was 1.85 µM. For the same compound, the TGI [22] was 3.87 µM, the GI50 [23] was 1.9 µM and the TGI [23] was 4.83 µM. It also gave a GI50 [24] of 13.5 µM, a TGI [24] of 31.2 µM and a GI50 [25] of 16.7 µM. For the same compound, the TGI [25] was 31.2 µM, the GI50 [26] was 9.42 µM and the TGI [26] was 24.7 µM. The GI50 [27] was 20.1 µM, the TGI [27] was 54.3 µM and the GI50 [28] was 5.79 µM. The TGI [28] was 13.4 µM, the GI50 [29] was 23 µM and the TGI [29] was > 54.8 µM. It also gave a GI50 [30] of 3 µM, a TGI [30] of 11.6 µM and a GI50 [31] of 16.6 µM. The TGI [31] was 43.1 µM, the GI50 [32] was 3.38 µM and the TGI [32] was 11.6 µM. It also gave a GI50 [33] of 2.28 µM, a TGI [33] of 5.54 µM and a GI50 [34] of 13.8 µM. The TGI [34] was 31.3 µM, the GI50 [35] was 4.94 µM and the TGI [35] was 9.44 µM. It also gave a GI50 [36] of 14.8 µM, a TGI [36] of 29.1 µM and a GI50 [37] of 19.9 µM. It also gave a TGI [37] of 38 µM, a GI50 [38] of 15.4 µM and a TGI [38] of 40.5 µM. The GI50 [39] was 18.9 µM, the TGI [39] was > 56.2 µM and the GI50 [40] was 10.7 µM. The TGI [40] was 36.8 µM, the GI50 [41] was 3.85 µM and the GI50 [42] was 25.4 µM. For the same compound, the TGI [42] was 74.1 µM, the GI50 [43] was 12.9 µM and the TGI [43] was 38.4 µM. It also gave a GI50 [44] of 15.7 µM, a TGI [44] of 30.2 µM and a GI50 [45] of 15.7 µM. For the same compound, the TGI [45] was 39.2 µM, the GI50 [46] was 14.1 µM and the TGI [46] was 48.1 µM. It also gave a GI50 [47] of 6.87 µM, a TGI [47] of 20.2 µM and a GI50 [48] of 1.87 µM. It also gave a TGI [48] of 3.28 µM, a GI50 [49] of 13.9 µM and a TGI [49] of 28 µM. The GI50 [50] was 16 µM, the TGI [50] was 31.8 µM and the GI50 [51] was 12.5 µM. It also gave a TGI [51] of 30.9 µM, a GI50 [52] of 0.658 µM and a TGI [52] of 11.9 µM. For the same compound, the GI50 [53] was 13.8 µM, the TGI [53] was 26.8 µM and the GI50 [54] was 12.1 µM. The TGI [54] was 26.5 µM, the GI50 [55] was 3.03 µM and the TGI [55] was > 100 µM. It also gave a GI50 [56] of 18.5 µM, a TGI [56] of 38 µM and a GI50 [57] of 20 µM. The TGI [57] was 36 µM, the GI50 [58] was 16.6 µM and the TGI [58] was 31.9 µM.
